The record followed here is patent EP0677293A1, “PHARMACEUTICAL USE OF TERPYRIDINE DERIVATIVE” (priority 1992, dated 1994).

Series [1] has as its system Astroglial cells derived from the mouse forebrain. The experiment in a line: Synthesis-stimulating activity on NGF (NGF level in culture medium by enzyme immunoassay). As to conditions: ratio to DMSO control = 1.0. Type of series: cell-based. How it is done:
The activity of accelerating secretion of NGF was evaluated by the following method.
Each compound shown in Table 1 was dissolved in dimethylsulfoxide (DMSO) to adjust the concentration in the range of 2 mg/ml to 10 mg/ml.
Astroglial cells derived from the mouse forebrain (cells that synthesize and secrete NGF)
Astroglial cells obtained from the mouse forebrain were cultured into 8 x 10⁵ cells/ml in Dulbecco's modified Eagle's medium obtained from Gibco, glucose-rich, containing 20% fetal calf serum, 100 units/ml of penicillin and 100 µg/ml of streptomycin. A 0.1 ml/well aliquot was inoculated on a 96-well plate obtained from Falcon and having an area of 0.32 cm² per well and cultured at 37°C in an atmosphere of 5% CO₂. The culture medium was removed 72 hours later and instead, a 0.1 ml/well aliquot of fresh Dulbecco's modified Eagle's medium containing 0.5% bovine albumin powders obtained from Armour, 100 units/ml of penicillin and 100 µg/ml of streptomycin was supplemented to the system followed by culturing at 37°C in 5% CO₂. The above medium containing the compound each having various concentrations was exchanged 72 hours later. For the purpose of comparison, the medium which contains only DMSO was also prepared (control).
The synthesis-stimulating activity on NGF by the compound of the present invention is shown in terms of a ratio when the NGF level in the control containing only DMSO was made 1.0.

Series [2] deals with both common carotid artery-occlusion model Mongolian gerbils. Description: Test on delayed neuronal death induced by cerebral ischemia (3 min occlusion of both common carotid arteries, histology of hippocampus after 7 days). The format is in vivo. The note with it: for Incidence Frequency of Neuronal Damage -: score 0 (-), normal neurons; for Incidence Frequency of Neuronal Damage +: score 1 (+), a few neurons damaged; for Incidence Frequency of Neuronal Damage ++: score 2 (++), many neurons damaged; for Incidence Frequency of Neuronal Damage +++: score 3 (+++), majority of neurons damaged. How it is done:
Neuronal damages induced by cerebral ischemia was evaluated in the both common carotid artery-occlusion model Mongolian gerbils. Male Monglian gerbils, supplied by Shin Nihon Dobutsu Co., Ltd., Saitama, Japan and weighing 60 to 90 g. The gerbils were anesthetized lightly with ether and placed in the supine position. After local infiltration of xylocaine, both common carotid arteries were exposed through a ventral midline incision. The arteries were then clamped with aneurysm clips for 3 minutes. Thereafter the clips were removed and the skin was sutured. Sham operated animals were treated in the same manner, except that clamping was not done. The animals were anesthetized with ether 7 days after the bilateral common carotid arteries had been occluded for 3 minutes, and the brains were perfused with a 10% buffered formalin solution given through the left cardiac ventricle. The hippocampal region was cut coronally into 3- to 4-mm thick slices, embedded in paraffin and processed using the step section technique. The preparations were stained with hematoxylin and eosin. Ischemic neuronal damage was graded on 4 levels from scores 0 to 3: score 0 (-), normal neurons; score 1 (+), a few neurons damaged (as few as one neuron damaged); score 2 (++), many neurons damaged; and score 3 (+++), majority of neurons damaged. Compounds to be tested were suspended in gum arabic or dissolved in physiological saline, which was intraperitoneally given at determined times in doses of 10 mg/kg to 100 mg/kg, before and after the induced ischemia.

Series [3] concerns Cerebral cortical neuronal cells from an 18-day-old rat embryo. Description: Test on neurotrophic activity (living cells counted by fluorescein diacetate fluorescence, with or without hypoxic load). The format is cell-based. How it is done:
The neurotrophic activity was determined by the following method. Each compound was dissolved in DMSO to adjust the concentration in the range of 2 mg/ml to 10 mg/ml. Cerebral cortical neuronal cells from an 18-day-old rat embryo […] After 24 hours of incubation, the culture medium was removed and a 0.5 ml/well aliquot of a serum-free fresh DF medium containing the respective compounds having various concentrations, 5 µg/ml of transferrin, 5 µg/ml of insulin and 20 pmoles/ml of progesterone was supplemented to the system. For the purpose of comparison, the medium containing only DMSO was added was also prepared. At this stage, the two same plates were used. After 72 hours of incubation in various medium, hypoxia was loaded on one plate by reducing the concentration of oxygen to the minimum concentration of 1% using a N₂-O₂-CO₂ incubator (manufactured by Tabai, Model BNP-100) and culturing for 4 hours under the conditions. Another plate was cultured in an atmosphere of 5% CO₂ and 95% air, without hypoxic load. After the incubation was continued for further 48 hours, living cells were counted. The culture medium was removed and fluorescein diacetate (FDA) reagent was reacted. After washing with phosphate buffer, pH 7.4, the fluorescent intensity (E x 485/Em 530) was measured by CytoFlour^TM 2300, manufactured by Millipore.

The mark [4] stands for this setting: dose 100 mg/kg, intraperitoneally, immediately after ischemia.
[5] abbreviates: dose 10, intraperitoneally, 30 mins after ischemia.
Where [6] appears, read: dose 10, intraperitoneally, 1 hour after ischemia.
The mark [7] stands for this setting: dose 10, intraperitoneally, immediately after ischemia.
The mark [8] stands for this setting: no hypoxic load, ratio of fluorescent intensity to DMSO control = 1.0, read-out: Neurotrophic Activity No Hypoxic Load.
Where [9] appears, read: 4 h, hypoxic load (1% oxygen, 4 hours), ratio of fluorescent intensity to DMSO control = 1.0, read-out: Neurotrophic Activity Hypoxic Load.
Setting [10] is: dose 100 mg/kg, intraperitoneally, before 30 mins.

Where two headings read alike, the source gives them in different places.

For `Cc1ccc(-c2cc(-c3ccccn3)nc(-c3ccccn3)c2)cc1` [Compound 5, 4'-(4-Methylphenyl)-2,2':6',2''-terpyridine], in series [1] (Mus musculus, 24 h), the fold induction at 20 µg/mL was 10.1. Also, the fold induction at 100 µg/mL in series [1] (Mus musculus, 24 h, 100 µg/ml) was determined as 9.8. Moreover, in series [2] (setting [4]), the Incidence Frequency of Neuronal Damage - is 25%, the Incidence Frequency of Neuronal Damage + turned out to be 50%, the Incidence Frequency of Neuronal Damage ++ came to 0% and the Incidence Frequency of Neuronal Damage +++ is 25%.

As to `Cc1ccc(-c2cc(-c3ccccn3)nc(-c3ccccn3)c2)cc1.Cl.Cl.Cl` [Compound 6, 4'-(4-Methylphenyl)-2,2':6',2''-terpyridin trihydrochloride], the “Synthesis-Stimulating Activity on NGF” value in series [1] (100 µg/ml, 24 hours) was found to be 5.0. In series [1] (Mus musculus, 24 h), the fold induction at 10 µg/mL was determined as 2 and the fold induction at 30 µg/mL came out at 3.3. The “damages of the hippocampal CAl neurons” value in series [2] (intraperitoneally given 30 minutes after or an hour after the ischemia had been induced) is “prevented damages of the hippocampal CAl neurons”. For the same compound, in series [2] (setting [5]), the Incidence Frequency of Neuronal Damage - was found to be 25%, the Incidence Frequency of Neuronal Damage + was determined as 37.5%, the Incidence Frequency of Neuronal Damage ++ was 12.5% and the Incidence Frequency of Neuronal Damage +++ is 25%. Also, in series [2] (setting [6]), the Incidence Frequency of Neuronal Damage - was determined as 0%, the Incidence Frequency of Neuronal Damage + was determined as 50%, the Incidence Frequency of Neuronal Damage ++ was found to be 25% and the Incidence Frequency of Neuronal Damage +++ worked out at 25%. Further, in series [2] (setting [7]), the Incidence Frequency of Neuronal Damage - was 0%, the Incidence Frequency of Neuronal Damage + is 75%, the Incidence Frequency of Neuronal Damage ++ is 0% and the Incidence Frequency of Neuronal Damage +++ was found to be 25%.

Regarding `CCCCCCCCCCCCCCCCCc1cc[n+](Cc2ccc(-c3cc(-c4ccccn4)nc(-c4ccccn4)c3)cc2)cc1` [Compound 27, 4-Heptadecyl-1-[4-(2,2':6',2''-terpyridin-4'-yl)phenylmethyl]pyridinium bromide], in series [3] (setting [8]), the viability at 2 µg/mL was 200% and the viability at 10 µg/mL worked out at 190%. For the same compound, in series [3] (setting [9]), the viability at 2 µg/mL worked out at 150% and the viability at 10 µg/mL is 200%. In addition, the fold induction at 20 µg/mL in series [1] (Mus musculus, 24 h) was found to be 1. Besides, the fold induction at 100 µg/mL in series [1] (Mus musculus, 24 h, 100 µg/ml) was determined as 1.2.

Consider `CCCCCCCCC(CCCCCCCC)c1cc[n+](Cc2ccc(-c3cc(-c4ccccn4)nc(-c4ccccn4)c3)cc2)cc1` [Compound 28, 4-(1-Octylnonyl)-1-[4-(2,2':6',2''-terpyridin-4'-yl)phenylmethyl]pyridinium bromide], for which, in series [3] (setting [8]), the viability at 2 µg/mL stood at 260% and the viability at 10 µg/mL came out at 130%. In series [3] (setting [9]), the viability at 2 µg/mL came out at 310% and the viability at 10 µg/mL amounted to 380%. Moreover, the fold induction at 20 µg/mL in series [1] (Mus musculus, 24 h) amounted to 3.6. For the same compound, the fold induction at 100 µg/mL in series [1] (Mus musculus, 24 h, 100 µg/ml) is 2.5.

With `CCCCCCCCCCCCCCCCC(CCCCCCCCCCCCCCCC)c1cc[n+](Cc2ccc(-c3cc(-c4ccccn4)nc(-c4ccccn4)c3)cc2)cc1.[Br-]` [Compound 29, 4-(1-Hexadecylheptadecyl)-1-[4-(2,2':6',2''-terpyridin-4'-yl)phenylmethyl]pyridinium bromide], in series [3] (setting [8]), the viability at 2 µg/mL was found to be 610% and the viability at 10 µg/mL came to 570%. Also, in series [3] (setting [9]), the viability at 2 µg/mL was found to be 500% and the viability at 10 µg/mL turned out to be 300%. The fold induction at 3 µg/mL in series [1] (Mus musculus, 24 h, 3 µg/ml) turned out to be 1. Further, in series [1] (Mus musculus, 24 h), the fold induction at 10 µg/mL came to 2 and the fold induction at 30 µg/mL is 7.6. Besides, the fold induction at 100 µg/mL in series [1] (Mus musculus, 24 h, 100 µg/ml) stood at 13. Further, in series [2] (setting [10]), the Incidence Frequency of Neuronal Damage - is 42.9%, the Incidence Frequency of Neuronal Damage + stood at 14.3%, the Incidence Frequency of Neuronal Damage ++ was determined as 14.3% and the Incidence Frequency of Neuronal Damage +++ was determined as 28.6%.

Consider `c1ccc(-c2cc(-c3ccncc3)cc(-c3ccccn3)n2)nc1` [Compound 30, 4'-(4-Pyridyl)-2,2':6',2''-terpyridine], for which, in series [3] (setting [8]), the viability at 2 µg/mL was determined as 420% and the viability at 10 µg/mL was determined as 120%. In series [3] (setting [9]), the viability at 2 µg/mL worked out at 530% and the viability at 10 µg/mL was 130%. Further, the fold induction at 2 µg/mL in series [1] (Mus musculus, 24 h, 2 µg/ml, 24 hours, read-out: Synthesis-Stimulating Activity on NGF) was determined as 1. Moreover, the fold induction at 10 µg/mL in series [1] (Mus musculus, 24 h) is 1.2. Further, the fold induction at 50 µg/mL in series [1] (Mus musculus, 24 h, 50 µg/ml, 24 hours, read-out: Synthesis-Stimulating Activity on NGF) stood at 1.2. Also, in series [2] (setting [4]), the Incidence Frequency of Neuronal Damage - was 100%, the Incidence Frequency of Neuronal Damage + is 0%, the Incidence Frequency of Neuronal Damage ++ is 0% and the Incidence Frequency of Neuronal Damage +++ was 0%.
